# From article PMC4263425 (Biochemistry, 2014)
# Assays:
# HDAC8 = conditions: read-out: Ki for HDAC8; cited from earlier work
# human HDAC8 [1] = biological target: T1, human HDAC8 (Homo sapiens, UniProt Q9BY41); test: Isothermal titration calorimetry; format: binding
# T1 sequence (Q9BY41 1-377): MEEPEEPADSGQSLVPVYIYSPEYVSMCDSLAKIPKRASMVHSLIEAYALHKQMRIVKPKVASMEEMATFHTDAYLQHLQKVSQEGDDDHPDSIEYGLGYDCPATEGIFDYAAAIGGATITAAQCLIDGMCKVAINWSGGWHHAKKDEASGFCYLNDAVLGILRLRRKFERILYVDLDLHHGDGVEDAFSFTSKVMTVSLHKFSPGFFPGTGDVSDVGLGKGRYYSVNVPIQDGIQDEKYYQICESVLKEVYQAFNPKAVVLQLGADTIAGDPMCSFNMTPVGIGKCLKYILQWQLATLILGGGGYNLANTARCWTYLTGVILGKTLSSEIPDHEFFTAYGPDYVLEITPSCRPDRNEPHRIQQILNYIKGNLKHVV
# human HDAC8 [2] = biological target: T1, human HDAC8; test: Temperature-dependent ITC; format: binding; conditions: for temp (K), where ΔG° = ΔH°: interpolated from the ΔCp° plots, TΔS° = 0
# [3] = Tris-HCl buffer (pH 7.5), 25 °C
# [4] = difference versus SAHA, Table 1 conditions
Structure (SMILES),Ki (HDAC8) [nM],stoichiometry (human HDAC8 [1]; [3]),ΔG°obs (human HDAC8 [1]; [3]),"temp (K), where ΔG° = ΔH° (human HDAC8 [2]) [K]",other results
O=C(CCCc1ccccc1)NO [4-PBHA],1850,–,–,–,–
Cn1cc(C(=O)c2ccccc2)cc1C=CC(=O)NO [APHA],600,–,–,–,–
"CC(NC(=O)CCCc1ccc2ccc3cccc4ccc1c2c34)C(=O)NO (stereo not shown) [MH-12/4, N-(1-Hydroxycarbamoyl-ethyl)-4-pyren-1-yl-butyramide]",–,0.9 ± 0.1,–8.0 ± 0.4 kcal/mol,341,"TΔS°obs (human HDAC8 [1]; [3]): 5.3 ± 0.4 kcal/mol; ΔH°obs (human HDAC8 [1]; [3]): –2.72 ± 0.3 kcal/mol; binding enthalpy less favorable than that of SAHA by (human HDAC8 [1]; [4]): 8.2 kcal/mol; binding entropy (TΔS°) more favorable than that of SAHA by (human HDAC8 [1]; [4]): 7.8 kcal/mol; ΔCp° (human HDAC8 [2]; 5–25 °C, Tris-HCl buffer, slope of ΔH°obs vs temperature): –0.13 ± 0.02 kcal mol^–1 K^–1"
"O=C(CCCCCCC(=O)Nc1ccccc1)NO [SAHA, suberoylanilide hydroxamic acid]",–,0.9 ± 0.1,–8.4 ± 0.3 kcal/mol,288,higher favorable binding enthalpy compared to that of TSA (human HDAC8 [1]; Table 1 conditions): 2 kcal/mol; stoichiometry of the enzyme–SAHA complex (human HDAC8 [1]; control ITC titration for every batch of enzyme): 0.9–1
O=C(CCCCCCC(=O)Nc1cccnc1)NO [pyroxamide],1000,–,–,–,–
